From US9872917B2, “Anion-paired cationic metallocene-containing compounds and polymers as antimicrobial agents” (University of South Carolina, priority 2013, dated 2018) come the findings set out here.

The assay relates to CA-MRSA cells. As to the kind of experiment: Broth dilution method, growth followed at OD600. The class given is cell-based, Staphylococcus aureus. Conditions: stock solutions 20 μg/ml penicillin G, 20 μg/ml polymer, 40 μg/ml loaded polymer; 37° C., OD600 every 2 hours. On the procedure:
Broth dilution method was used to characterize the inhibition of penicillin G/polymer complex against CA-MRSA cells. Penicillin G, cationic cobaltocenium polymer or penicillin G/polymer complex was dissolved in water. Concentrations of the above solutions were at 20 μg/ml for penicillin G, 20 μg/ml for cationic polymer and 40 μg/ml penicillin G loaded polymer (20 μg/ml penicillin G and 20 μg/ml polymer). Solutions without polymers were prepared as the control samples. CA-MRSA cells were grown in tryptic soy broth (TSB) medium at 37° C. overnight. All bacteria were grown to an optical density of 1 (OD600=1). Then, the cells were diluted with TSB to give a bacterial assay stock with OD600=0.04. CA-MRSA cells ([…]) were added to each well in a 96 well assay plate.
On the technique in general: Dilution methods test growth across graded concentrations, often in twofold steps.

As for `CC1(C)S[C@@H]2[C@H](NC(=O)Cc3ccccc3)C(=O)N2[C@H]1C(=O)O` [penicillin G, benzyl penicillin], the “inhibition of CA-MRSA growth (OD600)” value is listed as “some inhibition”.
